Assay results reported in US20110201596A1, “Methods for Providing Oxidatively Stable Ophthalmic Compositions” (priority 2005, published 2011).
Counter-ions that a name gives are not always drawn.

Experiment: Stability of ketotifen fumarate in borate buffered saline over autoclave cycles, analysed by HPLC
Format: physicochemical
Details: for % ketotifen: no PAA; for % ketotifen Unsparged: Example 3: buffer with poly(acrylic acid); for % ketotifen Nitrogen Sparged: Example 4: buffer with poly(acrylic acid); for ketotifen stability: after autoclaving
Procedure: A buffer solution was formed by dissolving 8.3 gm NaCl (from Sigma Aldrich), 9.1 gm boric acid (from Mallinckrodt) and 1 gm sodium borate (from Mallinckrodt) in 1 L deionized water (from Milli Q). […] Ketotifen fumarate (from Sigma Aldrich) was added to prepare a solution of approximately 80 ppm in the buffer solution. The ketotifen solution (3 mL) was placed in vials, autoclaved for the number of cycles shown in Table 1, below and analyzed as a function of autoclave cycle (3 replicate per autoclave cycle) using HPLC using an HP1100 and an Agilent Zorbax Eclipse XDB-C18 and Rapid Resolution HT 50×4.6 mm×1.8μ column and the following conditions:
Mobile Phase: • Eluent A: 17% acetonitrile in 0.025 M dihydrogen potassium phosphate buffer • 0.2% triethylamine, 0.13% o-phosphoric acid • Eluent B: 50% acetonitrile in 0.025 M dihydrogen potassium phosphate buffer • 0.2% triethylamine, 0.13% o-phosphoric acid
Example 1 was repeated, except that the buffer solution was sparged (with nitrogen) overnight (˜12 hrs) at about 370 standard cubic centimeter per minute (SCCM) and subsequently transferred to a nitrogen box (<0.5% oxygen). The ketotifen solution of about 90 ppm was prepared and placed in vials as described above, but in nitrogen box. The vials were autoclaved and analyzed as described in Example 1.
Examples 1 and 2 was repeated, except that 10 gm of poly(acrylic acid) (PAA, Mw, 225,000, from Polysciences, Inc., 20% in water) was added to the buffer solution. The vials were autoclaved and analyzed as described in Example 1.

CN1CCC(=C2c3ccccc3CC(=O)c3sccc32)CC1 [ketotifen, Ketotifen fumarate]
% ketotifen (Example 1: ~80 ppm in buffer pH 7.65, unsparged, autoclave cycle 0): 100% | % ketotifen (Example 1: ~80 ppm in buffer pH 7.65, unsparged, autoclave cycle 1): 0% | % ketotifen (Example 1: ~80 ppm in buffer pH 7.65, unsparged, autoclave cycle 2): 0% | % ketotifen (Example 1: ~80 ppm in buffer pH 7.65, unsparged, autoclave cycle 3): 0% | % ketotifen (Example 2: ~90 ppm, buffer nitrogen sparged ~12 hrs, nitrogen box, autoclave cycle 0): 100% | % ketotifen (Example 2: ~90 ppm, buffer nitrogen sparged ~12 hrs, nitrogen box, autoclave cycle 1): 98% | % ketotifen (Example 2: ~90 ppm, buffer nitrogen sparged ~12 hrs, nitrogen box, autoclave cycle 2): 98% | % ketotifen (Example 2: ~90 ppm, buffer nitrogen sparged ~12 hrs, nitrogen box, autoclave cycle 3): 98% | % ketotifen Unsparged (autoclave cycle 0): 100% | % ketotifen Unsparged (autoclave cycle 1): 94% | % ketotifen Unsparged (autoclave cycle 2): 81% | % ketotifen Unsparged (autoclave cycle 3): 66% | % ketotifen Nitrogen Sparged (autoclave cycle 0): 100% | % ketotifen Nitrogen Sparged (autoclave cycle 1): 99% | % ketotifen Nitrogen Sparged (autoclave cycle 2): 99% | % ketotifen Nitrogen Sparged (autoclave cycle 3): 98% | ketotifen stability (buffer sparged and solution kept under nitrogen (Table 2)): 98% | ketotifen stability (unsparged buffer (Table 1)): 0%
